In paper PMC6691761, “Potential multifunctional agents with anti-hepatoma and anti-inflammation properties by inhibiting NF-кB activation” (Journal of Enzyme Inhibition and Medicinal Chemistry, 2019):

Columns and labels:
Format in all cases: cell-based
[1] = system: human normal hepatic cell line (LO2); assay: Toxicity to normal cells, MTT assay, LO2; conditions: 24 h
Description: (§1) Compounds 83–102 were screened against human neoplastic cell lines, such as human breast cancer cells (MCF-7), human colon cancer cells (HCT116), human lung carcinoma cells (A549), human gastric adenocarcinoma cells (SGC7901), human liver hepatocellular carcinoma cell line (HepG2), human cervical carcinoma cells (HeLa), human acute mononuclear granulocyte leukaemia (THP-1), and human normal hepatic cell line (LO2) using modified MTT assay. All the cells were obtained from the American Type Culture Collection (ATCC, Manassas, VA). The cells were cultured in DMEM or 1640. Positive controls (Doxorubicin (DOX) and Curcumin) and BAPs were initially dissolved in dimethyl sulphoxide (DMSO). Experimental concentration of DMSO was always 0.1% (v/v). The concentrations of BAPs and positive controls were 50, 20, 10, 5, 2.5, 1, 0.5, 0.1, 0.05, and 0.01 μg/mL.
(§2) The cells (1 × 10^4 cells/well) were seeded in a 96-well plate and incubated for 24 h. Cells treated with serial concentrations of drugs were incubated for another 24 h. After the media removed, 20 μL of MTT (5 mg/mL) solution was added and incubated for 4 h at 37 °C. The MTT solution was removed and then 150 μL of DMSO was added. The optical density was measured with a multi-well plate reader (TECAN, Mӓnnedorf, Switzerland) at 570 nm. The results are expressed as a decrease in the cell viability (%) in comparison to untreated controls. The concentration of each compound was examined in triplicate, and the IC50 values are expressed in Table 1.

[2] = system: human colon cancer cells (HCT116); assay: Cytotoxicity, MTT assay, HCT116; conditions: for IC50: MTT, 24 h; for HCT116 SI (selectivity index): quotient of IC50 towards LO2 cells
Description: as §1, §2

[3] = system: human breast cancer cells (MCF-7); assay: Cytotoxicity, MTT assay, MCF-7; conditions: for IC50: MTT, 24 h; for MCF-7 SI (selectivity index): quotient of IC50 towards LO2 cells
Description: as §1, §2

[4] = system: human acute mononuclear granulocyte leukaemia (THP-1); assay: Cytotoxicity, MTT assay, THP-1; conditions: for IC50: MTT, 24 h; for THP-1 SI (selectivity index): quotient of IC50 towards LO2 cells
Description: as §1, §2

[5] = system: human gastric adenocarcinoma cells (SGC7901); assay: Cytotoxicity, MTT assay, SGC7901; conditions: for IC50: MTT, 24 h; for SGC7901 SI (selectivity index): quotient of IC50 towards LO2 cells
Description: as §1, §2

[6] = system: human liver hepatocellular carcinoma cell line (HepG2); assay: Cytotoxicity, MTT assay, HepG2; conditions: for IC50: MTT, 24 h; for HepG2 SI (selectivity index): quotient of IC50 towards LO2 cells
Description: as §1, §2

[7] = system: human cervical carcinoma cells (HeLa); assay: Cytotoxicity, MTT assay, HeLa; conditions: for IC50: MTT, 24 h; for HeLa SI (selectivity index): quotient of IC50 towards LO2 cells
Description: as §1, §2

[8] = system: human lung carcinoma cells (A549); assay: Cytotoxicity, MTT assay, A549; conditions: for IC50: MTT, 24 h; for A549 SI (selectivity index): quotient of IC50 towards LO2 cells
Description: as §1, §2

| SMILES | IC50 [1] | IC50 [2] | HCT116 SI (selectivity index) [2] | IC50 [3] | MCF-7 SI (selectivity index) [3] | IC50 [4] | THP-1 SI (selectivity index) [4] | IC50 [5] | SGC7901 SI (selectivity index) [5] | IC50 [6] | HepG2 SI (selectivity index) [6] | IC50 [7] | HeLa SI (selectivity index) [7] | IC50 [8] | A549 SI (selectivity index) [8] | also measured |
| --- | --- | --- | --- | --- | --- | --- | --- | --- | --- | --- | --- | --- | --- | --- | --- | --- |
| CN1CC(=Cc2cccc(N=Cc3ccc(Cl)cc3)c2)C(=O)C(=Cc2ccccc2F)C1 [Compound 94] | 18 ± 0.3 µM | 6.3 ± 0.1 µM | 2.9 | 6.5 ± 0.1 µM | 2.8 | 4 ± 0.1 µM | 4.5 | 6.4 ± 0.1 µM | 2.8 | 4.8 ± 0.1 µM | 3.8 | 11.1 ± 0.3 µM | 1.6 | 5.9 ± 0.3 µM | 3.1 | – |
| CN1C/C(=C\c2cccc([N+](=O)[O-])c2)C(=O)/C(=C/c2cc(F)ccc2F)C1 [Compound 86] | 21.3 ± 0.4 µM | 10.5 ± 0.9 µM | 2.0 | 11.1 ± 0.7 µM | 1.9 | 7 ± 0.2 µM | 3.0 | 20.5 ± 0.5 µM | 1.0 | 9.2 ± 0.4 µM | 2.3 | 11.5 ± 0.8 µM | 1.9 | 9.3 ± 0.4 µM | 2.3 | – |
| COc1ccc(C=Nc2cccc(C=C3CN(C)CC(=Cc4ccccc4F)C3=O)c2)c(O)c1 [Compound 101] | 13.9 ± 0.3 µM | 4.9 ± 0.1 µM | 2.8 | 4.7 ± 0.2 µM | 3.0 | 3.5 ± 0.2 µM | 4.0 | 10.8 ± 0.1 µM | 1.3 | 4.8 ± 0.1 µM | 2.9 | 8.9 ± 0.2 µM | 1.6 | 3.5 ± 0.2 µM | 4.0 | – |
| CN1CC(=Cc2cccc(N=Cc3ccc(Cl)c(Cl)c3)c2)C(=O)C(=Cc2ccccc2F)C1 [Compound 95] | 11 ± 0.4 µM | 6.3 ± 0.2 µM | 1.7 | 5.4 ± 0.2 µM | 2.0 | 3.8 ± 0.1 µM | 2.9 | 3.3 ± 0.5 µM | 3.3 | 2.5 ± 0.1 µM | 4.4 | 4.3 ± 0.1 µM | 2.6 | 3.1 ± 0.2 µM | 3.5 | – |
| CN1C/C(=C\c2cccc([N+](=O)[O-])c2)C(=O)/C(=C/c2ccc(F)cc2Br)C1 [Compound 87] | 13.7 ± 0.5 µM | 7.7 ± 0.4 µM | 1.8 | 11.6 ± 0.3 µM | 1.2 | 6.6 ± 0.1 µM | 2.1 | 4.7 ± 0.3 µM | 2.9 | 5.4 ± 0.5 µM | 2.5 | 9.4 ± 0.5 µM | 1.5 | 4.3 ± 0.3 µM | 3.2 | – |
| CN1CC(=Cc2cccc(N=Cc3cc(O)ccc3O)c2)C(=O)C(=Cc2ccccc2F)C1 [Compound 99] | 15.6 ± 0.4 µM | 7.42 ± 0.1 µM | 2.1 | 5.9 ± 0.2 µM | 2.6 | 7.8 ± 0.4 µM | 2.0 | 4.7 ± 0.3 µM | 3.3 | 8.2 ± 0.1 µM | 1.9 | 15.3 ± 1.1 µM | 1.0 | 4.4 ± 0.1 µM | 3.5 | – |
| COc1cc(Br)c(O)c(C=Nc2cccc(C=C3CN(C)CC(=Cc4ccccc4F)C3=O)c2)c1 [Compound 102] | 14.8 ± 0.1 µM | 18.1 ± 1.9 µM | 0.8 | 15.5 ± 1.2 µM | 1.0 | 5 ± 0.2 µM | 3.0 | 7 ± 0.4 µM | 2.1 | 5.9 ± 0.1 µM | 2.5 | 9.1 ± 0.2 µM | 1.6 | 13.4 ± 0.7 µM | 1.1 | – |
| COc1ccc(/C=C2\CN(C)C/C(=C\c3ccc(Cl)c(Cl)c3)C2=O)cc1 [Compound 91] | 14.2 ± 0.3 µM | 18.1 ± 0.2 µM | 0.8 | 12.5 ± 0.5 µM | 1.1 | 7.2 ± 0.2 µM | 2.0 | 6.4 ± 0.1 µM | 2.2 | 4.5 ± 0.7 µM | 3.2 | 17 ± 1.3 µM | 0.8 | 9.2 ± 0.1 µM | 1.5 | – |
| CN1C/C(=C\c2cccc([N+](=O)[O-])c2)C(=O)/C(=C/c2ccccc2F)C1 [Compound 83, (3E,5E)-3–(2-fluorobenzylidene)-1-methyl-5–(3-nitrobenzylidene)piperidin-4-one] | – | – | 2.1 | – | 1.8 | – | – | – | 3.5 | – | – | – | 5.2 | – | 5.7 | IC50 ([1]; Homo sapiens): 13.1 ± 0.8 µM; IC50 ([2]; Homo sapiens, HCT-116): 6.2 ± 0.6 µM; IC50 ([3]; Homo sapiens, MCF7): 7.2 ± 0.3 µM; IC50 ([4]; Homo sapiens, THP-1, 24 h): 1.3 ± 0.1 µM; IC50 ([5]; Homo sapiens, SGC-7901): 3.7 ± 0.3 µM; IC50 ([6]; Homo sapiens, HepG2, 24 h): 1.2 ± 0.2 µM; IC50 ([7]; Homo sapiens, HeLa): 2.5 ± 0.3 µM; IC50 ([8]; Homo sapiens, A549, 24 h): 2.3 ± 0.2 µM |
| CN1CC(=Cc2cccc(N=Cc3ccc(O)cc3O)c2)C(=O)C(=Cc2ccccc2F)C1 [Compound 98] | 17.6 ± 0.2 µM | 11.4 ± 0.7 µM | 1.5 | 10.3 ± 0.7 µM | 1.7 | 5.1 ± 0.2 µM | 3.5 | 10.9 ± 0.3 µM | 1.6 | 7.5 ± 0.1 µM | 2.3 | 6.2 ± 0.1 µM | 2.8 | 3.2 ± 0.7 µM | 5.5 | – |
| COc1cc(/C=C2\CN(C)C/C(=C\c3ccc(F)cc3Br)C2=O)cc(OC)c1OC [Compound 88] | 14.8 ± 0.3 µM | 6.5 ± 0.3 µM | 2.3 | 6.3 ± 0.4 µM | 2.3 | 7.6 ± 0.2 µM | 1.9 | 3.6 ± 0.1 µM | 4.1 | 5.3 ± 0.2 µM | 2.8 | 5.3 ± 0.3 µM | 2.8 | 5.6 ± 0.3 µM | 2.6 | – |
| COc1ccc(/C=C2\CN(C)C/C(=C\c3cc(OC)c(OC)c(OC)c3)C2=O)cc1 [Compound 90] | 16.5 ± 0.1 µM | 12.1 ± 0.4 µM | 1.4 | 15.5 ± 0.9 µM | 1.1 | 5 ± 0.3 µM | 3.3 | 7 ± 0.4 µM | 2.4 | 8.2 ± 0.6 µM | 2.0 | 15.5 ± 0.2 µM | 1.1 | 5.8 ± 0.2 µM | 2.8 | – |
| COc1ccccc1/C=C1\CN(C)C/C(=C\c2cc(OC)c(OC)c(OC)c2)C1=O [Compound 89] | 13.6 ± 0.1 µM | 5.6 ± 0.1 µM | 2.4 | 9.7 ± 0.4 µM | 1.4 | 7.9 ± 0.3 µM | 1.7 | 3.3 ± 0.3 µM | 4.1 | 4.3 ± 0.1 µM | 3.2 | 5.3 ± 0.4 µM | 2.6 | 4.9 ± 0.1 µM | 2.8 | – |
| CN1C/C(=C\c2cc(F)cc(F)c2)C(=O)/C(=C/c2cccc([N+](=O)[O-])c2)C1 [Compound 85] | 20.3 ± 0.1 µM | 13.2 ± 0.5 µM | 1.5 | 18.5 ± 0.4 µM | 1.1 | 5.4 ± 0.3 µM | 3.8 | 24.5 ± 0.8 µM | 0.8 | 14.3 ± 0.1 µM | 1.4 | 14.2 ± 0.6 µM | 1.4 | 9.7 ± 0.2 µM | 2.1 | – |
